According to patent publication EP2776398B1, “SUBSTITUTED PYRAZOLYL-BASED UREA DERIVATIVES AS VANILLOID RECEPTOR LIGANDS” (Medifron DBT Inc., priority 2011, dated 2013):

Biological target: T1, vanilloid receptor 1 (VR1/TRPV1 receptor) (Homo sapiens, UniProt Q8NER1)
T1 construct: expressed in transfected cells; host or cells: CHO K1 cells (ECACC), stably transfected
Experiment: Functional testing on vanilloid receptor 1: FLIPR Ca2+ influx assay against capsaicin (Cap) in transfected CHO K1 cells (pharmacological method II); further: 100 nM capsaicin
Type: cell-based
Settings: read-out: (f) Ki (human being) [nM] Cap
From the text: […]

T1 sequence (Q8NER1 whole entry): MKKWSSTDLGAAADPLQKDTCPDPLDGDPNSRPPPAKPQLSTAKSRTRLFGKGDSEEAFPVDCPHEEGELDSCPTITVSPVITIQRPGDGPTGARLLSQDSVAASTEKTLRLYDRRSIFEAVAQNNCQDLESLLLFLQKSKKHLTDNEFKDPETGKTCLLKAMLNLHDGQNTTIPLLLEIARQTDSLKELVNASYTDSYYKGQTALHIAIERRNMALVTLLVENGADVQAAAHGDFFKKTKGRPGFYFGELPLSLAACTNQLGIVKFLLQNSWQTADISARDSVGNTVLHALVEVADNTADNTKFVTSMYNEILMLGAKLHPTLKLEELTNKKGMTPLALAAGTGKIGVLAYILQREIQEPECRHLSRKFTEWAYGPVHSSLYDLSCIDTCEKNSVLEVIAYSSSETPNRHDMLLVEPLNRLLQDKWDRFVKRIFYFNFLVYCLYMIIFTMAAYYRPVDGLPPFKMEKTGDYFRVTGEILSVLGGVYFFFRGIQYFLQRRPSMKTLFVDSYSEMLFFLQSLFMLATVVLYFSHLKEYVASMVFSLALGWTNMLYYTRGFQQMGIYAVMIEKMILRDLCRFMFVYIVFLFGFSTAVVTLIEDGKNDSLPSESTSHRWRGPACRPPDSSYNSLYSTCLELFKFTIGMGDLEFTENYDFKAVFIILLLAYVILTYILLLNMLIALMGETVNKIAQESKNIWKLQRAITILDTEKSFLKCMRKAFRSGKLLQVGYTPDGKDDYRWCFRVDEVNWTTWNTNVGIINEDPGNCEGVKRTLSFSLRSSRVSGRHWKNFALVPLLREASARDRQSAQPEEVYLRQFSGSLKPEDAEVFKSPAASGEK

| Compound | Ki |
| --- | --- |
| O=C(NCc1cc(C(F)(F)F)nn1-c1ccc(Cl)cc1)Nc1ccc(CO)c(F)c1 [A60, 1-[[2-(4-Chlorophenyl)-5-(trifluoromethyl)-2H-pyrazol-3-yl]-methyl]-3-[3-fluoro-4-(hydroxymethyl)-phenyl]-urea] | 10 nM |
| O=C(NCc1cc(C(F)(F)F)nn1-c1ccccc1F)Nc1ccc(CO)c(F)c1 [A61, 1-[3-Fluoro-4-(hydroxymethyl)-phenyl]-3-[[2-(2-fluorophenyl)-5-(trifluoromethyl)-2H-pyrazol-3-yl]-methyl]-urea] | 26 nM |
| O=C(NCc1cc(C(F)(F)F)nn1-c1cccc(F)c1)Nc1ccc(CO)c(F)c1 [A62, 1-[3-Fluoro-4-(hydroxymethyl)-phenyl]-3-[[2-(3-fluorophenyl)-5-(trifluoromethyl)-2H-pyrazol-3-yl]-methyl]-urea] | 30 nM |
| O=C(NCc1cc(C(F)(F)F)nn1-c1ccc(F)cc1)Nc1ccc(CO)c(F)c1 [A63, 1-[3-Fluoro-4-(hydroxymethyl)-phenyl]-3-[[2-(4-fluorophenyl)-5-(trifluoromethyl)-2H-pyrazol-3-yl]-methyl]-urea] | 9 nM |
| O=C(NCc1cc(C(F)(F)F)nn1-c1ccc(F)c(F)c1)Nc1ccc(CO)c(F)c1 [A64, 1-[[2-(3,4-Difluoro-phenyl)-5-(trifluoromethyl)-2H-pyrazol-3-yl]-methyl]-3-[3-fluoro-4-(hydroxymethyl)-phenyl]-urea] | 26 nM |
| O=C(NCc1cc(C(F)(F)F)nn1-c1ccc(F)c(Cl)c1)Nc1ccc(CO)c(F)c1 [A65, 1-[[2-(3-Chloro-4-fluoro-phenyl)-5-(trifluoromethyl)-2H-pyrazol-3-yl]-methyl]-3-[3-fluoro-4-(hydroxymethyl)-phenyl]-urea] | 6 nM |
| O=C(NCc1cc(C(F)(F)F)nn1-c1cc(F)cc(F)c1)Nc1ccc(CO)c(F)c1 [A66, 1-[[2-(3,5-Difluoro-phenyl)-5-(trifluoromethyl)-2H-pyrazol-3-yl]-methyl]-3-[3-fluoro-4-(hydroxymethyl)-phenyl]-urea] | 9 nM |
| COc1cccc(-n2nc(C(F)(F)F)cc2CNC(=O)Nc2ccc(CO)c(F)c2)c1 [A67, 1-[3-Fluoro-4-(hydroxymethyl)-phenyl]-3-[[2-(3-methoxyphenyl)-5-(trifluoromethyl)-2H-pyrazol-3-yl]-methyl]-urea] | 43 nM |
| COc1ccc(-n2nc(C(F)(F)F)cc2CNC(=O)Nc2ccc(CO)c(F)c2)cc1 [A68, 1-[3-Fluoro-4-(hydroxymethyl)-phenyl]-3-[[2-(4-methoxyphenyl)-5-(trifluoromethyl)-2H-pyrazol-3-yl]-methyl]-urea] | 13 nM |
| Cc1ccccc1-n1nc(C(F)(F)F)cc1CNC(=O)Nc1ccc(CO)c(F)c1 [A69, 1-[3-Fluoro-4-(hydroxymethyl)-phenyl]-3-[[2-(o-tolyl)-5-(trifluoromethyl)-2H-pyrazol-3-yl]-methyl]-urea] | 45 nM |
| Cc1cccc(-n2nc(C(F)(F)F)cc2CNC(=O)Nc2ccc(CO)c(F)c2)c1 [A70, 1-[3-Fluoro-4-(hydroxymethyl)-phenyl]-3-[[2-(m-tolyl)-5-(trifluoromethyl)-2H-pyrazol-3-yl]-methyl]-urea] | 9 nM |
| Cc1ccc(-n2nc(C(F)(F)F)cc2CNC(=O)Nc2ccc(CO)c(F)c2)cc1 [A71, 1-[3-Fluoro-4-(hydroxymethyl)-phenyl]-3-[[2-(p-tolyl)-5-(trifluoromethyl)-2H-pyrazol-3-yl]-methyl]-urea] | 42 nM |
| Cc1cccc(-n2nc(C(F)(F)F)cc2CNC(=O)Nc2ccc(CO)c(F)c2)c1C [A72, 1-[[2-(2,3-Dimethyl-phenyl)-5-(trifluoromethyl)-2H-pyrazol-3-yl]-methyl]-3-[3-fluoro-4-(hydroxymethyl)-phenyl]-urea] | 14 nM |
| Cc1cc(C)cc(-n2nc(C(F)(F)F)cc2CNC(=O)Nc2ccc(CO)c(F)c2)c1 [A73, 1-[[2-(3,5-Dimethyl-phenyl)-5-(trifluoromethyl)-2H-pyrazol-3-yl]-methyl]-3-[3-fluoro-4-(hydroxymethyl)-phenyl]-urea] | 27 nM |
